Earlier results, collected in patent EP0343306A1, “Liquid pharmaceutical preparation based on theophylline with a retarding effect, and process for producing it” (CARULLA VEKAR, S.A., priority 1988, dated 1989).

Settings: in vivo

## Cn1c(=O)c2[nH]cnc2n(C)c1=O [theophylline]
  plasmatic levels associated with a significant incidence of side effects: above 20 mcg/ml
